From ChEMBL document CHEMBL4665818, “Calvatianone, a Sterol Possessing a 6/5/6/5-Fused Ring System with a Contracted Tetrahydrofuran B-Ring, from the Fruiting Bodies of Calvatia nipponica” (J Nat Prod, 2020) come the findings set out here.

Common to all, as to format: functional, cell-based
The test system of assay [1] is MCF7. The assay is described as follows: Cytotoxicity against human MCF7 cells assessed as reduction in cell viability at 100 nM after 24 hrs in presence of ER antagonist ICI 182,780 by MTT assay. Background: Formazan colour is commonly taken as a measure of viable cells.
Assay [2] concerns MCF7. The assay is described as follows: Cytotoxicity against human MCF7 cells assessed as 17beta-estradiol-induced reduction in cell viability at 200 uM after 24 hrs by MTT assay.
The subject of assay [3] is MCF7. The assay is described as follows: Cytotoxicity against human MCF7 cells assessed as reduction in cell viability <= 100 uM after 24 hrs by MTT assay. The conditions noted are these: dose microM <=100, time 24.0 hrs.
The test system of assay [4] is MCF7. The assay is described as follows: Cytotoxicity against human MCF7 cells assessed as 17beta-estradiol-induced reduction in cell viability at 100 uM after 24 hrs by MTT assay.

The source made the active and inactive calls. The rule behind the calls is not given here.

For `CC(C)[C@@H](C)/C=C/[C@@H](C)[C@H]1CC[C@H]2[C@]3(O)C=CC4=CC(=O)CC[C@]4(C)[C@H]3CC[C@]12C`, the result with MCF7 [1], in the assay with MCF7 [2] and in the assay on MCF7 [3] was Active.
Turning to `COC(=O)C[C@]12OC3=CC(=O)CC[C@]3(C)[C@H]1CC[C@]1(C)[C@@H]([C@H](C)/C=C/[C@H](C)C(C)C)CC[C@H]12`, the result in the assay with MCF7 [1] and with MCF7 [3] was Active.
For the compound `CC(C)[C@@H](C)/C=C/[C@@H](C)[C@H]1CCC(=O)[C@]23CC(=O)[C@@H]4CC(=O)CC[C@]4(C)[C@H]2CC[C@]13C`, the result in the assay with MCF7 [1] and with MCF7 [3] was Active.
For the compound `CC(C)[C@@H](C)/C=C/[C@@H](C)[C@H]1CC[C@@H]2[C@]1(C)CC[C@H]1[C@]23C=C[C@]2(C[C@@H](O)CC[C@]12C)OO3`, the result in the assay with MCF7 [4], in the assay on MCF7 [1] and in the assay on MCF7 [3] was Active.
Regarding `CC(C)[C@@H](C)/C=C/[C@@H](C)[C@H]1CC[C@@H]2[C@]1(C)CC=C1[C@]23C=C[C@]2(C[C@@H](O)CC[C@]12C)OO3`, the result in the assay on MCF7 [1] and in the assay with MCF7 [3] was Active.
